Source: the supplement of paper PMC10627819

Key:
S. pneumoniae D39V [1] = assay: fitness (endpoint OD595 vs no drug) (fraction); higher = more growth
Method in brief: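 Fitness was measured as bacterial growth in 384-well plates inoculated at OD595 0.01 (30 µl, or 55 µl for S. pneumoniae). Media were TSB, LB Lennox or CY, at 37 °C. OD595 was read every 30 min for 14 h and background-subtracted against the first reading. Fitness is OD595 at the transition into stationary phase divided by the robust mean of no-drug control wells, capped at 1.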

B. subtilis 168 = assay: Bliss interaction score (quartile over a dose matrix) (fitness difference); higher = more antagonism (negative = synergy)
Method in brief: (§1)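 Each OD595 reading at entry into stationary phase was scaled to the robust mean of the untreated wells on its plate, with a ceiling of 1. These ratios define fitness, and single-drug fitness was inferred from combinations. The Bliss score compares observed fitness with the product-based expectation and is reported as quartiles across all replicate types, technical, biological and donor/recipient.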

S. aureus Newman = assay: as above
Method in brief: as §1

S. pneumoniae D39V [2] = assay: as above
Method in brief: as §1

S. aureus DSM 20231 = assay: as above
Method in brief: as §1
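Wherever Bliss interaction score (quartile over a dose matrix) is given: first quartile when negative (synergy) and third quartile when positive (antagonism).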
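Wherever fitness (endpoint OD595 vs no drug) is given: OD595 on entry to stationary phase over no-drug wells; at most 1.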

C[C@H]1c2cccc(O)c2C(=O)C2=C(O)[C@]3(O)C(=O)C(C(N)=O)=C(O)[C@@H](N(C)C)[C@@H]3[C@@H](O)[C@@H]21 [Doxycycline] + Cn1nnc(-c2ccc(-c3ccc(N4C[C@H](CO)OC4=O)cc3F)cn2)n1 [Tedizolid]
fitness, S. pneumoniae D39V [1], one replicate
Conditions	first compound 0.003875 µg/mL	first compound 0.00775 µg/mL	first compound 0.031 µg/mL	first compound 0.062 µg/mL
partner 0.125 µg/mL	0.847	0.848	–	–
partner 0.25 µg/mL	0.765	0.759	0.709	0.56
partner 0.5 µg/mL	0.411	0.438	0.301	0.203

fitness, S. pneumoniae D39V [1]
Conditions	partner 0.03125 µg/mL	partner 0.0625 µg/mL	partner 0.125 µg/mL	partner 0.25 µg/mL	partner 0.5 µg/mL
first compound 0.0155 µg/mL	0.91	0.913	0.832	0.801	0.456
first compound 0.031 µg/mL	0.957	0.9	0.768	–	–
first compound 0.062 µg/mL	0.92	0.905	0.826	–	–

Conditions	Bliss interaction score
B. subtilis 168	-0.0653
S. aureus DSM 20231	-0.0283
S. aureus Newman	-0.0152
S. pneumoniae D39V [2]	0.055

C[C@H]1c2cccc(O)c2C(=O)C2=C(O)[C@]3(O)C(=O)C(C(N)=O)=C(O)[C@@H](N(C)C)[C@@H]3[C@@H](O)[C@@H]21 [Doxycycline] + O=C1CN(/N=C/c2ccc([N+](=O)[O-])o2)C(=O)N1 [Nitrofurantoin]
fitness, S. pneumoniae D39V [1], one replicate
Conditions	first compound 0.003875 µg/mL	first compound 0.00775 µg/mL	first compound 0.0155 µg/mL	first compound 0.031 µg/mL	first compound 0.062 µg/mL
partner 2 µg/mL	≥ 1	0.943	–	0.77	0.68
partner 4 µg/mL	0.993	0.953	–	0.809	0.681
partner 5.14 µg/mL	–	–	0.875	0.894	0.828
partner 8 µg/mL	0.766	0.824	–	0.8	0.741

fitness, S. pneumoniae D39V [1]
Conditions	partner 1.285 µg/mL	partner 2 µg/mL	partner 2.57 µg/mL	partner 4 µg/mL	partner 8 µg/mL
first compound 0.0155 µg/mL	0.899	0.9	0.944	0.898	0.877
first compound 0.031 µg/mL	0.896	–	0.92	–	–
first compound 0.062 µg/mL	0.837	–	0.869	–	–

Conditions	Bliss interaction score
B. subtilis 168	0.0854
S. aureus DSM 20231	-0.0256
S. aureus Newman	-0.0329
S. pneumoniae D39V [2]	0.0703

C[C@@H]1O[C@@H]1P(=O)(O)O [Fosfomycin] + CO[C@H]1/C=C/O[C@@]2(C)Oc3c(C)c(O)c4c(O)c(c(/C=N/N5CCN(C)CC5)c(O)c4c3C2=O)NC(=O)/C(C)=C\C=C\[C@H](C)[C@H](O)[C@@H](C)[C@@H](O)[C@@H](C)[C@H](OC(C)=O)[C@@H]1C [Rifampicin]
fitness, S. pneumoniae D39V [1]
Conditions	first compound 1.25 µg/mL	first compound 2.5 µg/mL	first compound 5 µg/mL
partner 0.025 µg/mL	0.987	0.969	0.806
partner 0.05 µg/mL	0.986	–	–
partner 0.1 µg/mL	–	–	0.318

S. pneumoniae D39V [1], partner 0.2 µg/mL, one replicate
Conditions	fitness
first compound 1.25 µg/mL	0
first compound 2.5 µg/mL	0
first compound 5 µg/mL	0

Conditions	Bliss interaction score
B. subtilis 168	-0.0436
S. aureus DSM 20231	0.036
S. aureus Newman	0.0181
S. pneumoniae D39V [2]	0.0822

C[C@@H]1O[C@@H]1P(=O)(O)O [Fosfomycin] + C[C@@H](O)[C@H]1C(=O)N2C(C(=O)O)=C(SCCNC=N)C[C@H]12 [Imipenem]
fitness, S. pneumoniae D39V [1]
Conditions	partner 0.005 µg/mL	partner 0.0065 µg/mL	partner 0.01 µg/mL	partner 0.013 µg/mL	partner 0.02 µg/mL	partner 0.026 µg/mL
first compound 1.25 µg/mL	0.965	0.922	0.944	0.925	0.92	0.901
first compound 2.5 µg/mL	0.911	0.87	0.887	0.881	0.911	0.814
first compound 5 µg/mL	0.797	0.608	0.786	0.726	0.747	0.74

Conditions	Bliss interaction score
B. subtilis 168	0.0674
S. aureus DSM 20231	-0.0911
S. aureus Newman	0.0199
S. pneumoniae D39V [2]	0.0339

C[C@@H]1O[C@@H]1P(=O)(O)O [Fosfomycin] + Clc1ccc(COC(Cn2ccnc2)c2ccc(Cl)cc2Cl)c(Cl)c1 [Miconazole]
fitness, S. pneumoniae D39V [1]
Conditions	partner 1.073 µg/mL	partner 1.25 µg/mL	partner 2.145 µg/mL	partner 2.5 µg/mL	partner 4.29 µg/mL	partner 5 µg/mL
first compound 1.25 µg/mL	0.988	0.946	0.967	0.946	0.879	0.968
first compound 2.5 µg/mL	0.926	0.905	0.879	0.933	0.789	0.929
first compound 5 µg/mL	0.758	0.769	0.7	0.753	0.678	0.776

Conditions	Bliss interaction score
B. subtilis 168	-0.0714
S. aureus DSM 20231	0.0796
S. aureus Newman	0.103
S. pneumoniae D39V [2]	0.0499

C[C@@H]1O[C@@H]1P(=O)(O)O [Fosfomycin] + O=C1CN(/N=C/c2ccc([N+](=O)[O-])o2)C(=O)N1 [Nitrofurantoin]
fitness, S. pneumoniae D39V [1]
Conditions	partner 1.285 µg/mL	partner 2 µg/mL	partner 2.57 µg/mL	partner 4 µg/mL	partner 8 µg/mL
first compound 1.25 µg/mL	0.96	0.91	0.966	0.871	–
first compound 2.5 µg/mL	0.936	0.879	0.964	0.887	–
first compound 5 µg/mL	0.851	0.778	0.858	0.77	0.627

S. pneumoniae D39V [1], partner 5.14 µg/mL, one replicate
Conditions	fitness
first compound 1.25 µg/mL	0.923
first compound 2.5 µg/mL	0.898
first compound 5 µg/mL	0.866

Conditions	Bliss interaction score
B. subtilis 168	-0.0694
S. aureus DSM 20231	-0.0181
S. aureus Newman	0.0702
S. pneumoniae D39V [2]	0.122

Cc1ncc([N+](=O)[O-])n1CCO [Metronidazole] + CO[C@H]1/C=C/O[C@@]2(C)Oc3c(C)c(O)c4c(O)c(c(/C=N/N5CCN(C)CC5)c(O)c4c3C2=O)NC(=O)/C(C)=C\C=C\[C@H](C)[C@H](O)[C@@H](C)[C@@H](O)[C@@H](C)[C@H](OC(C)=O)[C@@H]1C [Rifampicin]
fitness, S. pneumoniae D39V [1]
Conditions	first compound 1.073 µg/mL	first compound 1.25 µg/mL	first compound 2.145 µg/mL	first compound 2.5 µg/mL	first compound 4.29 µg/mL	first compound 5 µg/mL
partner 0.05 µg/mL	0.881	0.81	0.907	0.83	0.84	0.839
partner 0.1 µg/mL	0.577	–	0.617	–	0.677	–
partner 0.2 µg/mL	0.302	–	0.35	–	–	–

fitness, S. pneumoniae D39V [1], one replicate
Conditions	first compound 1.25 µg/mL	first compound 2.5 µg/mL	first compound 5 µg/mL
partner 0.025 µg/mL	0.897	0.907	0.892
partner 0.2 µg/mL	0	0	0

Conditions	Bliss interaction score
B. subtilis 168	0.0335
S. aureus DSM 20231	-0.0591
S. aureus Newman	0.0408
S. pneumoniae D39V [2]	0.104

Cc1ncc([N+](=O)[O-])n1CCO [Metronidazole] + O=C1CN(/N=C/c2ccc([N+](=O)[O-])o2)C(=O)N1 [Nitrofurantoin]
fitness, S. pneumoniae D39V [1]
Conditions	first compound 1.073 µg/mL	first compound 1.25 µg/mL	first compound 2.145 µg/mL	first compound 2.5 µg/mL	first compound 4.29 µg/mL	first compound 5 µg/mL
partner 1.285 µg/mL	–	0.954	–	0.983	–	0.948
partner 2 µg/mL	0.93	–	0.945	–	0.89	–
partner 2.57 µg/mL	–	0.95	–	0.948	–	0.965
partner 4 µg/mL	0.929	–	0.919	–	0.902	–
partner 8 µg/mL	0.774	–	0.805	–	0.751	–

S. pneumoniae D39V [1], partner 5.14 µg/mL, one replicate
Conditions	fitness
first compound 1.25 µg/mL	0.936
first compound 2.5 µg/mL	0.973
first compound 5 µg/mL	0.989

Conditions	Bliss interaction score
B. subtilis 168	0.0755
S. aureus DSM 20231	0.0482
S. aureus Newman	-0.0503
S. pneumoniae D39V [2]	0.0483
